Assay results taken from the NIST ThermoML archive (doi:10.1016/j.jct.2004.04.004).

Experiment: xn = mol fraction of the nth substance listed
Details: 101.3 kPa, Liquid

Cc1ccccc1C [1,2-dimethylbenzene] + C[S+](C)[O-]
Details | mass density [kg/m3]
293.15 K, x1 = 0.0858 | 1070.35
293.15 K, x1 = 0.1359 | 1054.5
293.15 K, x1 = 0.1957 | 1036.82
293.15 K, x1 = 0.2589 | 1019.38
293.15 K, x1 = 0.3283 | 1001.63
293.15 K, x1 = 0.3947 | 985.85
293.15 K, x1 = 0.4732 | 968.58
293.15 K, x1 = 0.5482 | 953.27
293.15 K, x1 = 0.6132 | 940.87
293.15 K, x1 = 0.6648 | 931.53
293.15 K, x1 = 0.7329 | 919.84
293.15 K, x1 = 0.8012 | 908.78
293.15 K, x1 = 0.8732 | 897.78
293.15 K, x1 = 0.9198 | 891.02
303.15 K, x1 = 0.0923 | 1059.85
303.15 K, x1 = 0.153 | 1040.84
303.15 K, x1 = 0.229 | 1018.94
303.15 K, x1 = 0.3013 | 999.82
303.15 K, x1 = 0.3539 | 986.84
303.15 K, x1 = 0.439 | 967.38
303.15 K, x1 = 0.4938 | 955.72
303.15 K, x1 = 0.5539 | 943.64
303.15 K, x1 = 0.615 | 932.03
303.15 K, x1 = 0.6849 | 919.56
303.15 K, x1 = 0.7537 | 907.99
303.15 K, x1 = 0.8327 | 895.54
303.15 K, x1 = 0.9123 | 883.82
313.15 K, x1 = 0.0794 | 1055.53
313.15 K, x1 = 0.1246 | 1040.99
313.15 K, x1 = 0.1936 | 1020.26
313.15 K, x1 = 0.2638 | 1000.86
313.15 K, x1 = 0.3248 | 985.24
313.15 K, x1 = 0.4058 | 966.09
313.15 K, x1 = 0.5732 | 931.27
313.15 K, x1 = 0.649 | 917.29
313.15 K, x1 = 0.7044 | 907.66
313.15 K, x1 = 0.7724 | 896.49
313.15 K, x1 = 0.8355 | 886.69
313.15 K, x1 = 0.8943 | 878.03
313.15 K, x1 = 0.9234 | 873.9
323.15 K, x1 = 0.0833 | 1045.74
323.15 K, x1 = 0.1489 | 1024.89
323.15 K, x1 = 0.1948 | 1011.29
323.15 K, x1 = 0.2587 | 993.57
323.15 K, x1 = 0.3278 | 975.84
323.15 K, x1 = 0.4039 | 957.84
323.15 K, x1 = 0.4632 | 944.82
323.15 K, x1 = 0.5399 | 929.1
323.15 K, x1 = 0.6012 | 917.37
323.15 K, x1 = 0.664 | 906.05
323.15 K, x1 = 0.7576 | 890.35
323.15 K, x1 = 0.8148 | 881.37
323.15 K, x1 = 0.8833 | 871.21
323.15 K, x1 = 0.9347 | 863.97
333.15 K, x1 = 0.0795 | 1038.47
333.15 K, x1 = 0.1399 | 1019.08
333.15 K, x1 = 0.2048 | 999.81
333.15 K, x1 = 0.2598 | 984.62
333.15 K, x1 = 0.3189 | 969.38
333.15 K, x1 = 0.3832 | 953.94
333.15 K, x1 = 0.4539 | 938.16
333.15 K, x1 = 0.5138 | 925.7
333.15 K, x1 = 0.5822 | 912.36
333.15 K, x1 = 0.6427 | 901.28
333.15 K, x1 = 0.7038 | 890.71
333.15 K, x1 = 0.7638 | 880.89
333.15 K, x1 = 0.8247 | 871.45
333.15 K, x1 = 0.9138 | 858.53
343.15 K, x1 = 0.0698 | 1033.25
343.15 K, x1 = 0.1587 | 1004.79
343.15 K, x1 = 0.2184 | 987.38
343.15 K, x1 = 0.275 | 972.02
343.15 K, x1 = 0.3576 | 951.35
343.15 K, x1 = 0.4247 | 935.94
343.15 K, x1 = 0.4933 | 921.29
343.15 K, x1 = 0.5539 | 909.2
343.15 K, x1 = 0.6349 | 894.13
343.15 K, x1 = 0.7038 | 882.21
343.15 K, x1 = 0.7971 | 867.23
343.15 K, x1 = 0.8621 | 857.5
343.15 K, x1 = 0.9324 | 847.62
353.15 K, x1 = 0.0431 | 1034
353.15 K, x1 = 0.1383 | 1002.49
353.15 K, x1 = 0.2043 | 982.8
353.15 K, x1 = 0.2748 | 963.47
353.15 K, x1 = 0.3534 | 943.75
353.15 K, x1 = 0.4148 | 929.55
353.15 K, x1 = 0.4829 | 914.87
353.15 K, x1 = 0.5457 | 902.24
353.15 K, x1 = 0.6198 | 888.33
353.15 K, x1 = 0.6831 | 877.21
353.15 K, x1 = 0.7598 | 864.61
353.15 K, x1 = 0.8244 | 854.67
353.15 K, x1 = 0.8846 | 845.91
353.15 K, x1 = 0.9423 | 837.96

Cc1ccc(C)cc1 [1,4-dimethylbenzene] + C[S+](C)[O-]
Details | mass density [kg/m3]
293.15 K, x1 = 0.0599 | 1077
293.15 K, x1 = 0.1284 | 1052.94
293.15 K, x1 = 0.1944 | 1031.59
293.15 K, x1 = 0.2783 | 1006.68
293.15 K, x1 = 0.3589 | 984.83
293.15 K, x1 = 0.4385 | 965.03
293.15 K, x1 = 0.5032 | 950.09
293.15 K, x1 = 0.5539 | 939.03
293.15 K, x1 = 0.6235 | 924.72
293.15 K, x1 = 0.7023 | 909.62
293.15 K, x1 = 0.7635 | 898.63
293.15 K, x1 = 0.8243 | 888.27
293.15 K, x1 = 0.8831 | 878.73
293.15 K, x1 = 0.9327 | 871.04
303.15 K, x1 = 0.0632 | 1067.37
303.15 K, x1 = 0.1639 | 1032.58
303.15 K, x1 = 0.2343 | 1010.65
303.15 K, x1 = 0.2934 | 993.59
303.15 K, x1 = 0.3513 | 977.92
303.15 K, x1 = 0.425 | 959.33
303.15 K, x1 = 0.4892 | 944.29
303.15 K, x1 = 0.5633 | 928.09
303.15 K, x1 = 0.6398 | 912.58
303.15 K, x1 = 0.7135 | 898.68
303.15 K, x1 = 0.7624 | 889.95
303.15 K, x1 = 0.8243 | 879.44
303.15 K, x1 = 0.8609 | 873.48
303.15 K, x1 = 0.9244 | 863.55
313.15 K, x1 = 0.0662 | 1057.67
313.15 K, x1 = 0.1358 | 1033.11
313.15 K, x1 = 0.1942 | 1014.07
313.15 K, x1 = 0.2578 | 994.8
313.15 K, x1 = 0.3249 | 975.96
313.15 K, x1 = 0.3895 | 959.1
313.15 K, x1 = 0.4509 | 944.13
313.15 K, x1 = 0.5345 | 925.24
313.15 K, x1 = 0.6106 | 909.4
313.15 K, x1 = 0.6719 | 897.46
313.15 K, x1 = 0.754 | 882.52
313.15 K, x1 = 0.8358 | 868.7
313.15 K, x1 = 0.9235 | 854.92
323.15 K, x1 = 0.0573 | 1052.39
323.15 K, x1 = 0.1537 | 1018.34
323.15 K, x1 = 0.2359 | 992.38
323.15 K, x1 = 0.3131 | 970.2
323.15 K, x1 = 0.383 | 951.75
323.15 K, x1 = 0.4509 | 935.12
323.15 K, x1 = 0.5234 | 918.67
323.15 K, x1 = 0.5902 | 904.55
323.15 K, x1 = 0.6618 | 890.43
323.15 K, x1 = 0.7385 | 876.35
323.15 K, x1 = 0.8123 | 863.72
323.15 K, x1 = 0.8832 | 852.33
323.15 K, x1 = 0.9321 | 844.86
333.15 K, x1 = 0.0529 | 1045.49
333.15 K, x1 = 0.1248 | 1019.37
333.15 K, x1 = 0.1944 | 996.31
333.15 K, x1 = 0.265 | 974.86
333.15 K, x1 = 0.3398 | 954.01
333.15 K, x1 = 0.4014 | 938.13
333.15 K, x1 = 0.4624 | 923.43
333.15 K, x1 = 0.5137 | 911.8
333.15 K, x1 = 0.5823 | 897.2
333.15 K, x1 = 0.6582 | 882.18
333.15 K, x1 = 0.731 | 868.78
333.15 K, x1 = 0.8043 | 856.2
333.15 K, x1 = 0.8638 | 846.57
333.15 K, x1 = 0.9247 | 837.2
343.15 K, x1 = 0.0638 | 1032.77
343.15 K, x1 = 0.1398 | 1005.47
343.15 K, x1 = 0.2012 | 985.32
343.15 K, x1 = 0.275 | 963.03
343.15 K, x1 = 0.351 | 942.07
343.15 K, x1 = 0.4132 | 926.22
343.15 K, x1 = 0.4891 | 908.31
343.15 K, x1 = 0.5409 | 896.9
343.15 K, x1 = 0.6148 | 881.67
343.15 K, x1 = 0.6728 | 870.48
343.15 K, x1 = 0.7322 | 859.68
343.15 K, x1 = 0.813 | 845.91
343.15 K, x1 = 0.8732 | 836.29
343.15 K, x1 = 0.9322 | 827.33
353.15 K, x1 = 0.0609 | 1025.3
353.15 K, x1 = 0.1428 | 995.69
353.15 K, x1 = 0.218 | 971.2
353.15 K, x1 = 0.2843 | 951.45
353.15 K, x1 = 0.3598 | 930.79
353.15 K, x1 = 0.4241 | 914.57
353.15 K, x1 = 0.481 | 901.17
353.15 K, x1 = 0.5393 | 888.27
353.15 K, x1 = 0.6042 | 874.83
353.15 K, x1 = 0.6629 | 863.42
353.15 K, x1 = 0.7321 | 850.8
353.15 K, x1 = 0.7832 | 842
353.15 K, x1 = 0.833 | 833.83
353.15 K, x1 = 0.9128 | 821.46
